For assay [1], the system named is Bacillus subtilis. Description: Antimicrobial activity against Bacillus subtilis after 16 hr by serial dilution method. It counts as functional.
Assay [2] relates to Pseudomonas aeruginosa. Kind of assay: Antimicrobial activity against Pseudomonas aeruginosa after 16 hr by serial dilution method. Format: functional.
The test system of assay [3] is Staphylococcus aureus. Description: Antimicrobial activity against Staphylococcus aureus after 16 hr by serial dilution method. It counts as functional.
Assay [4] deals with Escherichia coli. Description: Antimicrobial activity against Escherichia coli after 16 hr by serial dilution method. It counts as functional.
Assay [5] has as its system Bacillus subtilis. Kind of assay: Antimicrobial activity against Bacillus subtilis at 1.6125 to 50 ug/ml after 16 hr by serial dilution method. It counts as functional, organism-based.
Assay [6] relates to Pseudomonas aeruginosa. Kind of assay: Antimicrobial activity against Pseudomonas aeruginosa at 1.6125 to 50 ug/ml after 16 hr by serial dilution method. Format: functional, organism-based.
Assay [7] has as its system Escherichia coli. Description: Antimicrobial activity against Escherichia coli at 1.6125 to 50 ug/ml after 16 hr by serial dilution method. It counts as functional, organism-based.
Assay [8] has as its system Staphylococcus aureus. Description: Antimicrobial activity against Staphylococcus aureus at 1.6125 to 50 ug/ml after 16 hr by serial dilution method. It counts as functional, organism-based.

In brackets after ≈: the same amount, converted by molar mass. Activity calls are given as the source filed them. No cut-off for these calls is given here.

This note sets out measurements from ChEMBL document CHEMBL3045399, “A novel series of homoallylic amines as potential antimicrobials” (2012).

As for `C=CCC(Nc1ccc(Oc2ccc(Cl)cc2)cc1)c1ccc(-c2ccccc2Cl)o1` (configuration not stated), the MIC in the assay on Bacillus subtilis [1], against Pseudomonas aeruginosa [2], in the assay with Staphylococcus aureus [3] and with Escherichia coli [4] was 3.12 µg/mL (≈ 6.94 µM) throughout.

Take `C=CCC(Nc1ccc(C(C)(C)C)cc1)c1ccc(F)cc1F` (configuration not stated): the MIC with Bacillus subtilis [1], against Pseudomonas aeruginosa [2], with Staphylococcus aureus [3] and in the assay on Escherichia coli [4] was 3.12 µg/mL (≈ 9.91 µM) throughout.

As for `C=CCC(Nc1cccc(F)c1)c1cc(OC)ccc1F` (configuration not stated), the MIC against Bacillus subtilis [1], in the assay on Pseudomonas aeruginosa [2], against Staphylococcus aureus [3] and against Escherichia coli [4] was 1.61 µg/mL (≈ 5.58 µM) each time.

Regarding `C=CCOc1ccccc1C(CC=C)Nc1ccc(Oc2ccc(Cl)cc2)cc1` (configuration not stated), the MIC against Bacillus subtilis [1] was 3.12 µg/mL (≈ 7.7 µM); with Pseudomonas aeruginosa [2] it was 25 µg/mL (≈ 61.6 µM); against Staphylococcus aureus [3] it was 3.12 µg/mL (≈ 7.7 µM); against Escherichia coli [4] it was 6.25 µg/mL (≈ 15.4 µM).

On to `CO/N=C(\C(=O)N[C@@H]1C(=O)N2C(C(=O)O)=C(CSc3nc(=O)c(O)nn3C)CS[C@H]12)c1csc(N)n1` [CEFTRIAXONE], for which the MIC in the assay on Bacillus subtilis [1] was found to be 1.61 µg/mL (≈ 2.91 µM); against Pseudomonas aeruginosa [2], 1.61 µg/mL (≈ 2.91 µM); in the assay on Staphylococcus aureus [3], 3.12 µg/mL (≈ 5.63 µM); in the assay with Escherichia coli [4], 1.61 µg/mL (≈ 2.91 µM).

As to `C=CCC(Nc1cc(F)c(F)cc1F)c1ccc(F)cc1F` (configuration not stated), the minimum inhibitory concentration (MIC) against Bacillus subtilis [1], against Pseudomonas aeruginosa [2], in the assay on Staphylococcus aureus [3] and with Escherichia coli [4] was 1.61 µg/mL (≈ 5.15 µM) throughout.

As for `C=CCC(Nc1cccc2ncsc12)c1cn(C(C)=O)c2ccccc12` (configuration not stated), the MIC against Bacillus subtilis [1], against Pseudomonas aeruginosa [2], against Staphylococcus aureus [3] and against Escherichia coli [4] was 12.5 µg/mL (≈ 34.6 µM) in each case.

Consider `C=CCC(Nc1ccc(C#N)cc1)c1ccsc1` (configuration not stated), for which the MIC in the assay with Bacillus subtilis [1] amounted to 6.25 µg/mL (≈ 24.6 µM); with Pseudomonas aeruginosa [2] it was 6.25 µg/mL (≈ 24.6 µM); against Staphylococcus aureus [3], 6.25 µg/mL (≈ 24.6 µM); with Escherichia coli [4], 3.12 µg/mL (≈ 12.3 µM).

Take `C=CCC(Nc1cc(C)ccc1C)C1CCCCC1` (configuration not stated): the MIC amounted to 12.5 µg/mL (≈ 48.6 µM) in the assay on Bacillus subtilis [1], 12.5 µg/mL (≈ 48.6 µM) in the assay on Pseudomonas aeruginosa [2], 6.25 µg/mL (≈ 24.3 µM) in the assay on Staphylococcus aureus [3] and 12.5 µg/mL (≈ 48.6 µM) with Escherichia coli [4].

On to `C=CCC(Nc1ccc(N2CCOCC2)cc1)C1CCCCC1` (configuration not stated), for which the MIC against Bacillus subtilis [1] worked out at 6.25 µg/mL (≈ 19.9 µM); in the assay on Pseudomonas aeruginosa [2], 25 µg/mL (≈ 79.5 µM); in the assay on Staphylococcus aureus [3], 6.25 µg/mL (≈ 19.9 µM); in the assay on Escherichia coli [4], 6.25 µg/mL (≈ 19.9 µM).

`C=CCC(Nc1ccc(F)cc1F)c1ccc(F)cc1F` (configuration not stated): the MIC in the assay on Bacillus subtilis [1], against Pseudomonas aeruginosa [2], in the assay on Staphylococcus aureus [3] and in the assay on Escherichia coli [4] was 1.61 µg/mL (≈ 5.46 µM) throughout.

In the case of `C=CCC(Nc1cccc2ccccc12)c1ccccc1` (configuration not stated), the MIC with Bacillus subtilis [1], against Pseudomonas aeruginosa [2], against Staphylococcus aureus [3] and in the assay on Escherichia coli [4] was 25 µg/mL (≈ 91.4 µM) each time.

For the compound `C=CCC(Nc1ccc(Cl)cc1F)c1c(F)cccc1F` (configuration not stated), the MIC came to 1.61 µg/mL (≈ 5.17 µM) against Bacillus subtilis [1], 1.61 µg/mL (≈ 5.17 µM) with Pseudomonas aeruginosa [2], 3.12 µg/mL (≈ 10 µM) against Staphylococcus aureus [3] and 1.61 µg/mL (≈ 5.17 µM) against Escherichia coli [4].

As for `C=CCC(Nc1ccc(F)cc1)c1cccc(OCC)c1` (configuration not stated), the MIC against Bacillus subtilis [1], in the assay with Pseudomonas aeruginosa [2], against Staphylococcus aureus [3] and in the assay with Escherichia coli [4] was 3.12 µg/mL (≈ 11 µM) in each case.

For the compound `C=CCC(NCc1ccc(F)c(F)c1)c1cc2ccccc2o1` (configuration not stated), the MIC against Bacillus subtilis [1] was determined as 3.12 µg/mL (≈ 9.97 µM); with Pseudomonas aeruginosa [2] it was 3.12 µg/mL (≈ 9.97 µM); in the assay with Staphylococcus aureus [3], 1.61 µg/mL (≈ 5.15 µM); in the assay on Escherichia coli [4], 3.12 µg/mL (≈ 9.97 µM).

For `C=CCC(Nc1ccc(C(C)(C)C)cc1)C1CC1` (configuration not stated), the outcome in the assay on Bacillus subtilis [5], in the assay on Pseudomonas aeruginosa [6], in the assay with Escherichia coli [7] and in the assay on Staphylococcus aureus [8] was inactive.

Turning to `C=CCC(Nc1ccc(F)c(C(F)(F)F)c1)C1CC1` (configuration not stated), the MIC in the assay with Bacillus subtilis [1] and in the assay on Staphylococcus aureus [3] was 1.61 µg/mL (≈ 5.9 µM) throughout. The result in the assay on Pseudomonas aeruginosa [6] and in the assay on Escherichia coli [7] was inactive.

As for `C=CCC(Nc1cccc2ccccc12)c1cc2ccccc2o1` (configuration not stated), the MIC amounted to 1.61 µg/mL (≈ 5.15 µM) in the assay on Bacillus subtilis [1], 1.61 µg/mL (≈ 5.15 µM) in the assay with Staphylococcus aureus [3] and 25 µg/mL (≈ 79.8 µM) in the assay with Escherichia coli [4]. Besides, the outcome in the assay on Pseudomonas aeruginosa [6] was inactive.
